Experimental data published in patent publication US20090022824A1, “Pesticidal formulations” (Akhil Technologies Pty Ltd, priority 2005, published 2009).

Test system: root-knot nematode (Meloidogyne javanica)
Assay: Efficacy to control root-knot nematode, pot trial with tomato plants
Format: in vivo
Conditions: tomato cv. Tiny Tim, relative to untreated control
Experimental: The efficacy of pesticidal formulations in the control of root-knot nematode (Meloidogyne javanica) as a pre-plant soil pesticidal formulation was investigated.
The root-knot nematode colonies were prepared with 1 kg of river sand placed in 100 mm diameter pots. The sand was inoculated with 10,000 eggs of root-knot nematode (M. javanica). The eggs were harvested from the roots of infected tomato plants (Lycopersicon esculentum cv. Tiny Tim) by washing in a 1% bleach solution for 3 minutes, collecting the […] on a 25 μm sieve and rinsing in running tap water for 2 minutes.
The appropriate treatment was applied to each pot in 5 mL of water using five 1 mL injections spaced evenly around the pot. Each dilution of the pesticidal formulation was applied using a pipette so that the tip of the pipette was 20 mm below the soil surface. The pots were allowed to stand for 7 days before planting a three week old tomato plant (c.v. Tiny Tim) in each pot.
Six weeks after planting the tomatoes were harvested. The tops of the plants were removed and dried for 4 days at 70° C. before being weighed. […] The juvenile nematodes were collected on a 25 μm sieve, backwashed and counted using a compound microscope at 40× magnification. […]

CNC(=S)[S-].[Na+] [metham sodium]
juvenile root-knot nematodes extracted from the roots (six weeks after planting, FIG. 2): significantly fewer | galls on the root system of tomato plants (gall rating) (soil inoculated with 10,000 eggs, harvested six weeks after planting, FIG. 1): significantly fewer
